Test results reported in ChEMBL document CHEMBL1146879, “Novel benzimidazole-based MCH R1 antagonists” (Bioorg Med Chem Lett, 2006).

How the values were obtained:
[1] = molecular target: Melanin-concentrating hormone receptor 1 (Homo sapiens, UniProt Q99705); assay: Antagonist activity against MCH1R expressed in CHO cells assessed as inhibition of MCH-induced EC80 […] response by luciferase reporter gene assay; assay type: functional, cell-based
[2] = Bioavailability in rat at 3 mg/kg, iv and 5 to 10 mg/kg, po; assay type: ADME, organism-based; conditions: in vivo
[3] = Ratio of drug level in brain against plasma in mouse; assay type: ADME, organism-based; conditions: brain and plasma, read-out: BPR
Mus musculus [4] = assay: Decrease in body weight of AKR/J DIO mouse relative to control after 15 days at 0.3 mg/kg, po; assay type: functional; design: scale not given: the % may be the effect or the level left
Mus musculus [5] = assay: Decrease in body weight of AKR/J DIO mouse relative to control after 15 days at 1 mg/kg, po; assay type: functional; design: scale not given: the % may be the effect or the level left
Mus musculus [6] = assay: Decrease in body weight of AKR/J DIO mouse relative to control after 15 days at 3 mg/kg, po; assay type: functional; design: scale not given: the % may be the effect or the level left
Mus musculus [7] = assay: Decrease in body weight of AKR/J DIO mouse relative to control after 15 days at 10 mg/kg, po; assay type: functional; design: scale not given: the % may be the effect or the level left
[8] = Bioavailability in mouse at 1.6 mg/kg, iv and 5.2 mg/kg, po; assay type: ADME, organism-based; conditions: in vivo
[9] = Half life in mouse; assay type: ADME, organism-based; conditions: in vivo

Melanin-concentrating hormone receptor 1, sequence (Q99705 whole entry): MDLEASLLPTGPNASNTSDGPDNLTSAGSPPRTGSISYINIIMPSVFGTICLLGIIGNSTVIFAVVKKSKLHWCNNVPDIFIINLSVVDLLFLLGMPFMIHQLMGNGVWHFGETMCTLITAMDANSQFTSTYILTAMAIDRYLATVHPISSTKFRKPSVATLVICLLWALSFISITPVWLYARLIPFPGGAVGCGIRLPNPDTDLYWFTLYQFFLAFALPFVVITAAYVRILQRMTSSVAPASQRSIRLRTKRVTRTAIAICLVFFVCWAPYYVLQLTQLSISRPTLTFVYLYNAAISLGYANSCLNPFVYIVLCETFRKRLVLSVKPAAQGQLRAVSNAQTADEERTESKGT

Row | SMILES | IC50 [1] [nM] | bioavailability [2] [%] | other results
1 | COc1ccc(-n2c(N(C)C)nc3cc(-n4cnc5cc(-c6ccc(Cl)cc6)sc5c4=O)ccc32)cc1 | 10 | 16 | –
2 | Cc1nc2cc(-n3cnc4cc(-c5ccc(Cl)cc5)sc4c3=O)ccc2n1CCCO | 1.58 | ≥ 100 | –
3 | COc1ccc(Cn2c(N(C)C)nc3cc(-n4cnc5cc(-c6ccc(Cl)cc6)sc5c4=O)ccc32)cc1 | 12.6 | – | –
4 | COCCNc1nc2cc(-n3cnc4cc(-c5ccc(Cl)cc5)sc4c3=O)ccc2[nH]1 | 31.6 | – | –
5 | CNc1nc2cc(-n3cnc4cc(-c5ccc(Cl)cc5)sc4c3=O)ccc2[nH]1 | 3.98 | 0 | –
6 | CC(C)Nc1nc2cc(-n3cnc4cc(-c5ccc(Cl)cc5)sc4c3=O)ccc2[nH]1 | 7.94 | – | –
7 | CCOc1ccc(-n2c(C)nc3cc(-n4cnc5cc(-c6ccc(Cl)cc6)sc5c4=O)ccc32)cc1 | 3.16 | – | –
8 | CN(C)c1nc2cc(-n3cnc4cc(-c5ccc(Cl)cc5)sc4c3=O)ccc2[nH]1 | 2.51 | 4 | –
9 | Cc1ccc(-n2c(C)nc3cc(-n4cnc5cc(-c6ccc(Cl)cc6)sc5c4=O)ccc32)cc1 | 20 | – | –
10 | Cn1c(N2CCCC2)nc2ccc(-n3cnc4cc(-c5ccc(Cl)cc5)sc4c3=O)cc21 | 6.31 | ≥ 100 | –
11 | Cc1nc2cc(-n3cnc4cc(-c5ccc(Cl)cc5)sc4c3=O)ccc2n1-c1ccc(N(C)C)cc1 | 5.01 | – | –
12 | COc1ccc(-n2c(C)nc3cc(-n4cnc5cc(-c6ccc(Cl)cc6)sc5c4=O)ccc32)cc1 | 5.01 | 3 | –
13 | Cc1nc2cc(-n3cnc4cc(-c5ccc(Cl)cc5)sc4c3=O)ccc2n1C1CCCCC1 | 6.31 | 0 | –
14 | COCCCn1c(C)nc2cc(-n3cnc4cc(-c5ccc(Cl)cc5)sc4c3=O)ccc21 | 5.01 | 40 | –
15 | Cc1nc2cc(-n3cnc4cc(-c5ccc(Cl)cc5)sc4c3=O)ccc2n1-c1ccc(OC(C)C)cc1 | 7.94 | – | –
16 | CN(C)c1nc2ccc(-n3cnc4cc(-c5ccc(Cl)cc5)sc4c3=O)cc2n1C | 1.58 | ≥ 100 | Kp [3]: 2.6; Activity (Mus musculus [4]): -1.6%; Activity (Mus musculus [5]): -2.1%; Activity (Mus musculus [6]): -5.1%; Activity (Mus musculus [7]): -10%; bioavailability [8]: > 90%; half-life [9]: 6 h
17 | O=c1c2sc(-c3ccc(Cl)cc3)cc2ncn1-c1ccc2[nH]c(N3CCCC3)nc2c1 | 3.16 | 76 | –
18 | O=c1c2sc(-c3ccc(Cl)cc3)cc2ncn1-c1ccc2[nH]c(NC3CC3)nc2c1 | 15.8 | – | –

Row | SMILES | IC50 [1] [nM] | bioavailability [2] [%] | other results
19 | CN(C)c1nc2cc(-n3cnc4cc(-c5ccc(Cl)cc5)sc4c3=O)ccc2n1CCO | 10 | 59 | –
20 | CN1CCN(c2nc3cc(-n4cnc5cc(-c6ccc(Cl)cc6)sc5c4=O)ccc3[nH]2)CC1 | 100 | – | –
21 | CN(C)c1nc2ccc(-n3cnc4cc(-c5ccc(Cl)cc5)sc4c3=O)cc2n1CCO | 12.6 | 55 | –
22 | CN(CCN1CCCC1)c1nc2cc(-n3cnc4cc(-c5ccc(Cl)cc5)sc4c3=O)ccc2[nH]1 | 5.01 | 0 | –
23 | CCCn1c(N(C)C)nc2ccc(-n3cnc4cc(-c5ccc(Cl)cc5)sc4c3=O)cc21 | 5.01 | 21 | –
24 | Cc1nc2cc(-n3cnc4cc(-c5ccc(Cl)cc5)sc4c3=O)ccc2n1CCN1CCOCC1 | 6.31 | 24 | –
25 | Cc1nc2cc(-n3cnc4cc(-c5ccc(Cl)cc5)sc4c3=O)ccc2n1CCN1CCCC1 | 2 | 31 | –
26 | CN(C)c1nc2cc(-n3cnc4cc(-c5ccc(Cl)cc5)sc4c3=O)ccc2n1C | 6.31 | – | –
27 | O=c1c2sc(-c3ccc(Cl)cc3)cc2ncn1-c1ccc2[nH]c(NCCN3CCCC3)nc2c1 | 6.31 | 0 | –
28 | CCCn1c(N(C)C)nc2cc(-n3cnc4cc(-c5ccc(Cl)cc5)sc4c3=O)ccc21 | 5.01 | 30 | –
29 | Cn1c(N2CCCC2)nc2cc(-n3cnc4cc(-c5ccc(Cl)cc5)sc4c3=O)ccc21 | 25.1 | – | –
30 | Cc1nc2cc(-n3cnc4cc(-c5ccc(Cl)cc5)sc4c3=O)ccc2[nH]1 | 25.1 | – | –
31 | COc1ccc(Cn2c(N(C)C)nc3ccc(-n4cnc5cc(-c6ccc(Cl)cc6)sc5c4=O)cc32)cc1 | 2510 | – | –
32 | Cc1nc2cc(-n3cnc4cc(-c5ccc(Cl)cc5)sc4c3=O)ccc2n1-c1ccccc1 | 31.6 | – | –
33 | O=c1c2sc(-c3ccc(Cl)cc3)cc2ncn1-c1ccc2[nH]c(N3CCCCC3)nc2c1 | 5.01 | 31 | –
34 | O=c1c2sc(-c3ccc(Cl)cc3)cc2ncn1-c1ccc2[nH]c(N3CCOCC3)nc2c1 | 15.8 | – | –
35 | Nc1nc2cc(-n3cnc4cc(-c5ccc(Cl)cc5)sc4c3=O)ccc2[nH]1 | 31.6 | – | –
